Data taken from ChEMBL document CHEMBL2380247, “Synthesis and biological evaluation of novel aliphatic amido-quaternary ammonium salts for anticancer chemotherapy: part II” (2013).
Active and inactive are the calls of the source. No cut-off for these calls is given here.

Tests used:
NUGC-3 [1] = assay: Antiproliferative activity against human NUGC3 cells at 0.3 uM by SRB assay; assay type: functional
NUGC-3 [2] = assay: Antiproliferative activity against human NUGC3 cells at 0.1 uM by SRB assay; assay type: functional
NUGC-3 [3] = assay: Antiproliferative activity against human NUGC3 cells at 1 uM by SRB assay; assay type: functional
NUGC-3 [4] = assay: Antiproliferative activity against human NUGC3 cells at 10 uM by SRB assay; assay type: functional
NUGC-3 [5] = assay: Antiproliferative activity against human NUGC3 cells at 3 uM by SRB assay; assay type: functional
MDA-MB-231 [6] = assay: Antiproliferative activity against human MDA-MB-231 cells at 0.1 uM by SRB assay; assay type: functional
MDA-MB-231 [7] = assay: Antiproliferative activity against human MDA-MB-231 cells at 0.3 uM by SRB assay; assay type: functional
MDA-MB-231 [8] = assay: Antiproliferative activity against human MDA-MB-231 cells at 1 uM by SRB assay; assay type: functional
MDA-MB-231 [9] = assay: Antiproliferative activity against human MDA-MB-231 cells at 10 uM by SRB assay; assay type: functional
MDA-MB-231 [10] = assay: Antiproliferative activity against human MDA-MB-231 cells at 3 uM by SRB assay; assay type: functional
ACHN [11] = assay: Antiproliferative activity against human ACHN cells at 0.1 uM by SRB assay; assay type: functional
ACHN [12] = assay: Antiproliferative activity against human ACHN cells at 1 uM by SRB assay; assay type: functional
ACHN [13] = assay: Antiproliferative activity against human ACHN cells at 0.3 uM by SRB assay; assay type: functional
ACHN [14] = assay: Antiproliferative activity against human ACHN cells at 3 uM by SRB assay; assay type: functional
ACHN [15] = assay: Antiproliferative activity against human ACHN cells at 10 uM by SRB assay; assay type: functional
NCI-H23 [16] = assay: Antiproliferative activity against human NCI-H23 cells at 0.3 uM by SRB assay; assay type: functional
NCI-H23 [17] = assay: Antiproliferative activity against human NCI-H23 cells at 0.1 uM by SRB assay; assay type: functional
NCI-H23 [18] = assay: Antiproliferative activity against human NCI-H23 cells at 3 uM by SRB assay; assay type: functional
NCI-H23 [19] = assay: Antiproliferative activity against human NCI-H23 cells at 1 uM by SRB assay; assay type: functional
NCI-H23 [20] = assay: Antiproliferative activity against human NCI-H23 cells at 10 uM by SRB assay; assay type: functional
PC-3 [21] = assay: Antiproliferative activity against human PC3 cells at 0.1 uM by SRB assay; assay type: functional
PC-3 [22] = assay: Antiproliferative activity against human PC3 cells at 1 uM by SRB assay; assay type: functional
PC-3 [23] = assay: Antiproliferative activity against human PC3 cells at 0.3 uM by SRB assay; assay type: functional
PC-3 [24] = assay: Antiproliferative activity against human PC3 cells at 3 uM by SRB assay; assay type: functional
HCT-15 [25] = assay: Antiproliferative activity against human HCT15 cells at 0.1 uM by SRB assay; assay type: functional
PC-3 [26] = assay: Antiproliferative activity against human PC3 cells at 10 uM by SRB assay; assay type: functional
HCT-15 [27] = assay: Antiproliferative activity against human HCT15 cells at 0.3 uM by SRB assay; assay type: functional
HCT-15 [28] = assay: Antiproliferative activity against human HCT15 cells at 3 uM by SRB assay; assay type: functional
HCT-15 [29] = assay: Antiproliferative activity against human HCT15 cells at 1 uM by SRB assay; assay type: functional
HCT-15 [30] = assay: Antiproliferative activity against human HCT15 cells at 10 uM by SRB assay; assay type: functional
[31] = target: Rho-related GTP-binding protein RhoB (Homo sapiens) (UniProt P62745); assay: Transactivation of RhoB in human HeLa cells by luciferase reporter assay; assay type: cell-based
NCI-H23 [32] = assay: Antiproliferative activity against human NCI-H23 cells by SRB assay; assay type: functional
NUGC-3 [33] = assay: Antiproliferative activity against human NUGC3 cells by SRB assay; assay type: functional
HCT-15 [34] = assay: Antiproliferative activity against human HCT15 cells by SRB assay; assay type: functional
ACHN [35] = assay: Antiproliferative activity against human ACHN cells by SRB assay; assay type: functional
MDA-MB-231 [36] = assay: Antiproliferative activity against human MDA-MB-231 cells by SRB assay; assay type: functional
PC-3 [37] = assay: Antiproliferative activity against human PC3 cells by SRB assay; assay type: functional

Sequence of Rho-related GTP-binding protein RhoB (Homo sapiens) (P62745 whole entry): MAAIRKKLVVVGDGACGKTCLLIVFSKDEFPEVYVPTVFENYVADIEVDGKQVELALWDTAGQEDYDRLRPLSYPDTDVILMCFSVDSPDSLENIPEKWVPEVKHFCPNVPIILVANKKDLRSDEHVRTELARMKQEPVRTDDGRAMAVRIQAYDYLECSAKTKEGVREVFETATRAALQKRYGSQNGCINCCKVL

| SMILES | growth, % of control at 0.3 µM (NUGC-3 [1]) [%] | growth, % of control at 0.1 µM (NUGC-3 [2]) [%] | growth, % of control at 1 µM (NUGC-3 [3]) [%] | growth, % of control at 10 µM (NUGC-3 [4]) [%] | growth, % of control at 3 µM (NUGC-3 [5]) [%] | growth, % of control at 0.1 µM (MDA-MB-231 [6]) [%] | growth, % of control at 0.3 µM (MDA-MB-231 [7]) [%] | growth, % of control at 1 µM (MDA-MB-231 [8]) [%] | growth, % of control at 10 µM (MDA-MB-231 [9]) [%] | growth, % of control at 3 µM (MDA-MB-231 [10]) [%] | growth, % of control at 0.1 µM (ACHN [11]) [%] | growth, % of control at 1 µM (ACHN [12]) [%] | growth, % of control at 0.3 µM (ACHN [13]) [%] | growth, % of control at 3 µM (ACHN [14]) [%] | growth, % of control at 10 µM (ACHN [15]) [%] | growth, % of control at 0.3 µM (NCI-H23 [16]) [%] | growth, % of control at 0.1 µM (NCI-H23 [17]) [%] | growth, % of control at 3 µM (NCI-H23 [18]) [%] | growth, % of control at 1 µM (NCI-H23 [19]) [%] | growth, % of control at 10 µM (NCI-H23 [20]) [%] | further results |
| --- | --- | --- | --- | --- | --- | --- | --- | --- | --- | --- | --- | --- | --- | --- | --- | --- | --- | --- | --- | --- | --- |
| CCCCCCCCCCCCCC(=O)NCC(C)(C)C[N+](C)(C)C | 104 | 103 | 84.7 | -33.6 | 16.2 | 98.5 | 103 | 90.2 | -11 | 44 | 94.5 | 95.1 | 96.2 | 83.8 | 28.7 | 109 | 147 | 48.3 | 104 | -26.6 | growth, % of control at 0.1 µM (PC-3 [21]): 97.9%; growth, % of control at 1 µM (PC-3 [22]): 64.1%; growth, % of control at 0.3 µM (PC-3 [23]): 94.5%; growth, % of control at 3 µM (PC-3 [24]): -13%; growth, % of control at 0.1 µM (HCT-15 [25]): 102%; growth, % of control at 10 µM (PC-3 [26]): -44.4%; growth, % of control at 0.3 µM (HCT-15 [27]): 101%; growth, % of control at 3 µM (HCT-15 [28]): 92.5%; growth, % of control at 1 µM (HCT-15 [29]): 97.9%; growth, % of control at 10 µM (HCT-15 [30]): 33.1%; Activity [31]: Active; GI50 (NCI-H23 [32]): 1440 nM; GI50 (NUGC-3 [33]): 840 nM; GI50 (HCT-15 [34]): 3700 nM; GI50 (ACHN [35]): 3120 nM; GI50 (MDA-MB-231 [36]): 1310 nM; GI50 (PC-3 [37]): 510 nM |
| CCCCCCCCCCCCCC(=O)NCCC[N+](C)(C)C | 73.2 | 84.9 | 46.7 | 14.8 | 28.7 | 83.4 | 81.2 | 80.6 | 19.1 | 58.1 | 83.3 | 77.1 | 77.2 | 58.1 | 25.4 | 96.4 | 99.4 | 39.8 | 80.9 | -15.6 | growth, % of control at 0.1 µM (PC-3 [21]): 85.2%; growth, % of control at 1 µM (PC-3 [22]): 44.6%; growth, % of control at 0.3 µM (PC-3 [23]): 87.3%; growth, % of control at 3 µM (PC-3 [24]): -4.97%; growth, % of control at 0.1 µM (HCT-15 [25]): 83.5%; growth, % of control at 10 µM (PC-3 [26]): -22.8%; growth, % of control at 0.3 µM (HCT-15 [27]): 82.5%; growth, % of control at 3 µM (HCT-15 [28]): 33%; growth, % of control at 1 µM (HCT-15 [29]): 71.6%; growth, % of control at 10 µM (HCT-15 [30]): 14.7%; Activity [31]: Active; GI50 (NCI-H23 [32]): 1020 nM; GI50 (NUGC-3 [33]): 430 nM; GI50 (HCT-15 [34]): 790 nM; GI50 (ACHN [35]): 1560 nM; GI50 (MDA-MB-231 [36]): 1480 nM; GI50 (PC-3 [37]): 390 nM |
